Reference: PubChem BioAssay (NCI)
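Each compound was tested at five concentrations against cells in 96-well plates for 48 hours. At the GI50, growth is halved. TGI denotes the concentration required for complete inhibition of growth.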

Legend:
Assay in all cases: NCI-60 cell line screen, 48 h
BT-549 breast = system: BT-549 breast
CAKI-1 renal = system: CAKI-1 renal
HT29 colon = system: HT29 colon
NCI-H23 lung = system: NCI-H23 lung
RPMI-8226 leukemia = system: RPMI-8226 leukemia
SR leukemia = system: SR leukemia
TK-10 renal = system: TK-10 renal
UACC-257 melanoma = system: UACC-257 melanoma

Row | Compound | TGI (BT-549 breast) [µM] | TGI (CAKI-1 renal) [µM] | TGI (HT29 colon) [µM] | TGI (NCI-H23 lung) [µM] | TGI (RPMI-8226 leukemia) [µM] | TGI (SR leukemia) [µM] | TGI (TK-10 renal) [µM] | TGI (UACC-257 melanoma) [µM] | GI50 (BT-549 breast) [µM] | GI50 (CAKI-1 renal) [µM] | GI50 (HT29 colon) [µM] | GI50 (NCI-H23 lung) [µM] | GI50 (RPMI-8226 leukemia) [µM] | GI50 (SR leukemia) [µM] | GI50 (TK-10 renal) [µM] | GI50 (UACC-257 melanoma) [µM]
1 | Cc1ccc(NC(=O)COc2ccc(Cl)cc2)cc1Cl | > 100 | 81.9 | > 100 | 74.9 | > 100 | 69.7 | > 100 | > 100 | – | – | – | – | – | – | – | –
2 | Cn1nc(C(F)(F)F)cc1-c1cc(Cl)c(OCc2ccc(Cl)cc2)c(-c2ccc(Cl)c(C(F)(F)F)c2)c1O | 2.75 | 3.49 | 5.92 | 3.86 | 2.55 | 2.11 | 5.56 | 3.14 | 0.995 | 1.11 | 1.4 | 0.965 | 0.712 | 0.651 | 1.66 | 0.964
3 | CC12CCC(C1)C(C)(C)C2OC(=O)c1ccccc1N (stereo not drawn) | 34.3 | 29.9 | 29.1 | 31.2 | 16.9 | 25.8 | 32.8 | 29 | – | – | – | – | – | – | – | –
4 | Cc1[nH]nc(C(F)(F)F)c1Cc1sc2c(c1C(=O)N1C[C@](C)(O)CO1)c(=O)n(C)c(=O)n2C(C)C | > 100 | > 100 | > 100 | > 100 | > 100 | – | > 100 | – | > 100 | > 100 | > 100 | > 100 | > 100 | – | > 100 | –
5 | COC(=O)C1=C(C)NC(=S)NC1c1ccc(N(CCCl)CCCl)cc1Cl (stereo not drawn) | > 100 | 14.6 | > 82.8 | > 62.1 | > 4.64 | – | 98.6 | 44.5 | 73.5 | – | – | – | – | – | – | –
6 | O=C(Nc1ccc(Br)c2ccccc12)c1ccc2ccccc2c1O | 11.3 | 25.2 | 15.3 | 10.2 | – | > 100 | 30.3 | 23.9 | – | – | – | – | – | – | – | –
7 | CCCCCCCCN(CCCCCCCC)CC(O)c1cc(-c2ccccc2)nc2ccc(OC)cc12 (stereo not drawn) | 64 | – | > 100 | > 100 | 44.3 | 97.3 | > 100 | > 100 | 23.9 | – | 18.3 | 43.4 | 10.3 | 10.1 | > 100 | > 100
8 | CC(=O)C1=C(C)N(Cc2ccccc2)C2(O)C=CC(=O)C3=C(O)c4ccccc4C(=O)C312 (stereo not drawn) | 19.6 | 6.37 | > 100 | 24.7 | 6.38 | – | 6.18 | 30.5 | 5.88 | 2.47 | 3.71 | 7.53 | 2.35 | – | 2.82 | 5.77
9 | [N-]=[N+]=C(C(=O)CN1CCCC1=O)S(=O)(=O)c1ccccc1 | > 100 | – | > 100 | > 100 | > 100 | > 100 | > 100 | > 100 | – | – | – | – | – | – | – | –
10 | CC(NNC(=S)N1CCN(c2ccccn2)CC1)c1nccc2ccccc12 (stereo not drawn) | 22.6 | 10.3 | 19.1 | 13.7 | – | – | 16.3 | 12.9 | – | – | – | – | – | – | – | –
11 | COc1ccc(C(=O)/C=C/c2ccc(OCc3cccc(C(F)(F)F)c3)c(OC)c2)cc1OC | 476 | – | > 1000 | > 1000 | 94 | > 1000 | > 1000 | > 1000 | 38.1 | – | 52.1 | 46.7 | 25.3 | 33.8 | 397 | 613
12 | O=[N+]([O-])c1ccc2c(c1)C(N1CCN(CCO)CC1)Cc1ccc(F)cc1S2 (stereo not drawn) | 23.1 | 26.3 | 7.14 | 29 | – | 20.6 | 27.8 | 7.01 | – | – | – | – | – | – | – | –
13 | CCOC(=O)N1CCC(N=C2CSc3nnc(-c4cc(C(F)(F)F)cc(C(F)(F)F)c4)n3N2)CC1 | 3.79 | 5.97 | 3.65 | 8.37 | 7.11 | 6.23 | – | 3.81 | 1.89 | 2.04 | 1.97 | 2.66 | 2.54 | 2.39 | – | 1.76
14 | Nc1ccc(C#Cc2ccccc2C#CCCCCO)cc1 | 34.8 | 40.4 | 26.1 | 35.1 | 44.2 | – | 46.5 | 33.8 | 16.3 | 20.9 | 13.3 | 18.2 | 18.1 | – | 21.6 | 18.9
15 | Cc1ccsc1C(NC(=O)c1ccccc1)c1cc(Cl)c2cccnc2c1O (stereo not drawn) | 21.3 | 14.9 | 20.7 | 17.5 | 16.3 | 12.3 | 12.6 | – | 2.04 | 0.495 | 0.548 | 0.65 | 0.475 | 0.398 | 0.579 | –
16 | C=CCc1c(O)c(C(=O)/C=C/c2ccc(Cl)cc2)c(OC)c2ccoc12 | 11 | 11.6 | 3.98 | 11.6 | – | 9.11 | 12.9 | 6.62 | 3 | 2.61 | 1.89 | 2.78 | – | 2.77 | 3.62 | 2.39
17 | CN1C(=O)N(C)C2C1NC(=S)N2/N=C/C=C/c1ccccc1[N+](=O)[O-] (stereo not drawn) | > 100 | > 100 | – | > 100 | > 100 | – | – | > 100 | 3.34 | 1.46 | – | 2.75 | 2.74 | – | – | > 100
18 | NS(=O)(=O)c1ccc(-n2nc3c(c2-c2cccs2)Cc2ccccc2-3)cc1 | 26.3 | 22.7 | 59.4 | 24.8 | 26.6 | – | 38.7 | 44.2 | 12.4 | 10.1 | 22.9 | 11.9 | 6.68 | – | 12.2 | 23.2
19 | CCN1CCN(C(=O)[C@]23CC[C@@H](C)[C@H](C)[C@@H]2C2=CC[C@@H]4[C@@]5(C)CCC(=O)C(C)(C)[C@@H]5CC[C@@]4(C)[C@]2(C)CC3)CC1 | 1.58 | 2.96 | 2.05 | 2.9 | – | – | 4.14 | 2.19 | 0.833 | 0.946 | 0.913 | 1.08 | – | – | 1.27 | 0.985
